US11667658B2, “Chemical synthesis of the organoarsenical antibiotic arsinothricin” (The Florida International University Board of Trustees, priority 2021, dated 2023)

Tested on: PpArsN1, the AST-selective N-acetyltransferase
Test: Enzymatic N-acetylation of AST by PpArsN1 (HPLC-ICP-MS)
Type: biochemical, Pseudomonas putida KT2440
Procedure: Enzymatic N-acetylation of AST (1). PpArsN1, the AST-selective N-acetyltransferase from Pseudomonas putida KT2440, was purified. […] The reaction solution was filtered using an Amicon Ultra centrifugal filter with a 3K cutoff membrane (MilliporeSigma), and arsenic species in the filtrate were analyzed by HPLC-ICP-MS.

| Compound | conversion to L-N-Ac-AST by PpArsN1 (in words) (PpArsN1/AcCoA, HPLC-ICP-MS (FIG. 23)) | conversion to L-N-Ac-AST by PpArsN1 (10 μM AST, 0.2 μM PpArsN1, 0.2 mM AcCoA, 37° C., 30 min (FIG. 23)) [%] |
| --- | --- | --- |
| C[As](=O)(O)CCC(N)C(=O)O (centres unmarked) [bAST] | nearly completely converted | – |
| C[As](=O)(O)CCC(N)C(=O)O (centres unmarked) [sAST] | – | 50 |
